Experiment [1] addresses T1, 5-hydroxytryptamine receptor 2C (Homo sapiens, UniProt P28335).
T1 sequence (P28335 whole entry): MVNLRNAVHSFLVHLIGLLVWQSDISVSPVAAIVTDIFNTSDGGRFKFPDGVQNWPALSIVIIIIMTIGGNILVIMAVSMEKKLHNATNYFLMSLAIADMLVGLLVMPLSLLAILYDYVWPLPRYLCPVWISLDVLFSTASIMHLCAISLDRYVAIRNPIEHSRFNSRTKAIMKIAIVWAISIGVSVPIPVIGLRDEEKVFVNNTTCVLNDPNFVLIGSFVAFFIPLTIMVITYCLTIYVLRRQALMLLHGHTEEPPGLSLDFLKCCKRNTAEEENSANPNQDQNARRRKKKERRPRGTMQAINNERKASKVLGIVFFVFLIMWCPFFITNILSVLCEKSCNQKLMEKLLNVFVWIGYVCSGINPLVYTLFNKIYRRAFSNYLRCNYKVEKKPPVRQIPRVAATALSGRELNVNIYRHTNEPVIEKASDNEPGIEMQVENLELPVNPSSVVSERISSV

For experiment [2], the target named is 5-hydroxytryptamine receptor 2B (Rattus norvegicus, UniProt P30994).
Chain of 5-hydroxytryptamine receptor 2B (P30994 whole entry): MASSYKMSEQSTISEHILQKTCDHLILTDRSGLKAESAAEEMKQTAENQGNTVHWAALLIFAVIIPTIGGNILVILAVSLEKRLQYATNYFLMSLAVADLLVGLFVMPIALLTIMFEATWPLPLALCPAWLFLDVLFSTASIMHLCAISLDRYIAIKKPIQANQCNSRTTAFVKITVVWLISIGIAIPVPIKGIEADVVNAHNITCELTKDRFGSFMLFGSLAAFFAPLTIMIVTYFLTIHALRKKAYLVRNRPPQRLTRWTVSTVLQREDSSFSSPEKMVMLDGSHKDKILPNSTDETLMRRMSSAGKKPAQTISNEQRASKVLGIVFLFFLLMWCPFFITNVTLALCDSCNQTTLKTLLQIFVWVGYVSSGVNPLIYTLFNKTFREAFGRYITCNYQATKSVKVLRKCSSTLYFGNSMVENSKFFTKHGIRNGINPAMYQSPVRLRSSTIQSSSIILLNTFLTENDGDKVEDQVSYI
Experiment [3] has as its target T2, 5-hydroxytryptamine receptor 2C (Rattus norvegicus, UniProt P08909).
T2 sequence (P08909 whole entry): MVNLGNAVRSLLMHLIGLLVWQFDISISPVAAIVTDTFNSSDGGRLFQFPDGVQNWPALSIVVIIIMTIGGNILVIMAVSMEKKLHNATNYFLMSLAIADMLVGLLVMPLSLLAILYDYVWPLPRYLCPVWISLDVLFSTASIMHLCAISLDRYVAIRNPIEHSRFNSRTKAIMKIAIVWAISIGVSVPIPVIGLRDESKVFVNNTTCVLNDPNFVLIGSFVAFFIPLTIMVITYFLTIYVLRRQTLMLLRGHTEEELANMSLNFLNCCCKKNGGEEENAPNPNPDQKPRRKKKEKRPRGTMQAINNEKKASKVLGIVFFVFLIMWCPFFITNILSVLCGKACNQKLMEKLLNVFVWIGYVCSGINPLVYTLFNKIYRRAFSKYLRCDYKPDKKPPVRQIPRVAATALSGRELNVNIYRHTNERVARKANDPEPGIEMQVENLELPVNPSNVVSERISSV

Molecules are shown by their SMILES.

In the case of `CC(N)Cc1c[nH]c2ccc(OCc3cccs3)cc12` (stereo not drawn) [NSC_5311036], the Ki in experiment [1] was found to be 316 nM; in experiment [2], 12.6 nM.
Consider `COC(=O)[C@@H]1[C@H]2C[C@H]3c4[nH]c5ccccc5c4CCN3C[C@@H]2CC[C@@H]1O` [yohimbic acid methyl ester], for which the Ki in experiment [3] turned out to be 5010 nM.

One may read the Ki as the equilibrium dissociation constant of an inhibitor or competing ligand from its target.
